Assays:
[1] = test system: human umbilical vascular endothelial (HUVE) cells; experiment: Compound toxicity in HUVE cells (morphology after 24 h culture); format: cell-based; conditions: 50-2000 nM, 5% FBS/EGM2 media
Protocol: HUVE cells were cultured for 24 hours on standard tissue culture dishes in the presence of EJC 1-6 over a range of concentration (50-2000 nM). […] (FIGS. 1 and 2).

[2] = test system: human umbilical vascular endothelial (HUVE) cells; experiment: Tube formation of HUVE cells on Matrigel; format: cell-based; conditions: for tube formation, quantitative analysis of mean tube length: cultured with VEGF in the basal EBM2 medium (FIG. 12)
Protocol: The effect of an agent on tube formation of HUVE cells was determined by a procedure described in Grant D S, Kinsella J L, Kibbey M C, LaFlamme S, Burbelo P D, Goldstein A L, Kleinman H K “Matrigel induces thymosin beta 4 gene in differentiating endothelial cells.” J Cell Sci. 1995, 108:3685-94, the teachings of which are incorporated by reference.
Briefly, HUVE cells (10^4 cells/150 μl of EBM-2) were plated on Matrigel™ (BD biosciences) and incubated for 12-16 hrs in the presence of VEGF (20 ng/ml) and the test compound. Tube formation was assessed in 10 random fields (4×).

[3] = test system: human umbilical vascular endothelial (HUVE) cells; experiment: HUVE cell migration, transwell migration assay stimulated by VEGF; format: cell-based; conditions: for HUVE cell migration: 20 ng/ml VEGF
Protocol: Cell migration is an important aspect of angiogenesis. The effect of the test compounds on HUVE cell motility as stimulated by VEGF was examined using a transwell migration assay. This assay was performed by a similar procedure described in Shimizu A, Mammoto A, Italiano J E Jr, Pravda E, Dudley A C, Ingber D E, Klagsbrun M. “ABL2/ARG tyrosine kinase mediates SEMA3F-induced RhoA inactivation and cytoskeleton collapse in human glioma cells.” J. Biol. Chem. 2008, 283:27230-8, the teaching of which are incorporated by reference.
Briefly, transwell membranes (Coster, N.Y.) were coated with 0.5% gelatin, and cells were seeded (10^5 cells/100 μl) with 0.3% FBS/EBM2. The test compound was added to the both sides of the chamber. Cells were stained with Giemsa solution 16 hours later, and counted in 10 random fields (×400).

[4] = test system: human umbilical vascular endothelial (HUVE) cells; experiment: HUVE cell growth (BrdU incorporation); format: cell-based; conditions: for growth of HUVE cells (BrdU incorporation): 0, 200, 1000 and 2000 nM (FIG. 3B); for BrdU incorporation: 1 μM (FIG. 3A); for doses that inhibited BrdU incorporation: FIGS. 3A & 3B; for HUVE cell growth induced by PDGF / HUVE cell growth induced by VEGF / HUVE cell growth induced by bFGF: concentration not given
Protocol: Incorporation of 5-bromo-2′-deoxyuridibe (BrdU) is a common method used to detect the DNA replication in actively proliferating cells. Inhibition of cell growth is inferred by the decrease of BrdU incorporation into the cells. […] The assay can be preformed in the presence or absence of growth factors such as VEGF, bFGF and PDGF. This assay was performed by a procedure described in Huang S, Chen C S, Ingber D E. “Control of cyclin D1, p 27(Kip1), and cell cycle progression in human capillary endothelial cells by cell shape and cytoskeletal tension.” Mol Biol Cell. 1998, 9:3179-93, the teachings of which are incorporated herein by reference.

[5] = test system: developing vasculature of the newborn mouse retina; experiment: In vivo screening assay for inhibitors of retinal angiogenesis (intravitreous injection, newborn mice); conditions: for retinal vessel formation: 5 nmol single injection
From the text: Blood vessel formation is critical for organ formation in the body. Compounds that inhibit angiogenesis within specific tissue types have therapeutic potential. For example, compounds that are effective in the retina may be used for the treatment of many types of blindness and other opthalmological diseases. Therefore, an in vivo method to screen for compounds that inhibit the growing vascular networks within the developing whole retina in eyes of living newborn mice was developed.
To screen in vivo in the eye for inhibitors of retinal angiogenesis, we adapted and modified the system described in Mammoto, A., Connor, K. M., Mammoto, T., Yung, C. W., Huh, D., Aderman, C. M., Mostoslaysky, G., Smith, L. E. H., & Ingber, D. E. A mechanosensitive transcriptional mechanism that controls angiogenesis. Nature 457, 1103-1108 (2009); and Shih, S. C., Ju, M., Liu, N. & Smith, L. E. Selective stimulation of VEGFR-1 prevents oxygen-induced retinal vascular degeneration in retinopathy of prematurity. J. Clin. Invest. 112, 50-7 (2003), the teachings of both are incorporated herein by reference. This assay was performed by a procedure described in Chen J, Connor K M, Aderman C M, Smith L E. “Erythropoietin deficiency decreases vascular stability in mice.” J. Clin. Invest. 2008, 118:526-33, the teachings of which are incorporated herein by reference.
After intraperitoneal injection of Avertin (125-240 mg/kg), the eyelid of mice was opened in a gentle manner by using tiny sterile blunt forceps. Test compound was injected into the vitreous of one eye of the mouse and a vehicle was injected into the other eye of the same mouse at either P6 or P14. Injections were performed by inserting an Exmire microsyringe (MS-NE05, ITO Corp. Fuji, Japan) into the vitreous 1 mm posterior to the corneal limbus. Pupils were dilated with 1% tropicamide. Insertion and the injection (0.3-0.5 μL solution) were directly viewed through an operating microscope, taking care not to injure the lens or the retina. The time points for intravitreous injection were set at P6 and P14 because these stages represent distinct developmental stages during vascular network formation. Blood vessels start spreading over the surface of retinal tissue at early times (P4-P6), then these distributed blood vessels start migrating into the deeper layer of the retina to make a three-dimensional vascular network at later times (P6-P14). Thus, using this approach, screening for inhibitors of initiation of angiogenesis at early times, and agents that induce regression of preexisting capillary vessels at the later time point can be identified.
After injection, the eyelid was treated with bacitracin eye antibiotic ointment, and eyelids naturally reformed after the procedure. Vascular network formation in the retina was assessed two days after injection using flat-mounted, fluorescein-conjugated isolectin-staining and immunohistochemical analysis. Quantification of vessel density was performed with Adobe photoshop.

[6] = 50 nM, cultured with VEGF in the basal EBM2 medium

CN(C)[C@@H]1CC[C@H]2[C@@H](CC[C@@H]3[C@@H]2CC[C@]2(C)C(c4ccc5ccncc5c4)=CC[C@@H]32)C1 [EJC-1] was tested, and the “morphological change of HUVE cells” value [1] was “No morphological change”, the tube formation ([2]; 2 μM) was “inhibited” and the HUVE cell migration ([3]; 200 nM test compound) was “exhibited inhibitory activity”. For the same molecule, the HUVE cell migration ([3]; 1 μM (1000 nM) test compound) was “inhibit”, the HUVE cell migration ([3]; 2000 nM test compound) was “inhibit” and the “growth of HUVE cells (BrdU incorporation)” value [4] was “inhibit the growth”. For the same molecule, the BrdU incorporation [4] was “inhibit” and the “doses that inhibited BrdU incorporation” value [4] was “greater than 1 μM”.

For CN(C)[C@H]1CC[C@H]2[C@@H](CC[C@@H]3[C@@H]2CC[C@]2(C)C(c4ccc5ccncc5c4)=CC[C@@H]32)C1 [EJC-2], the “morphological change of HUVE cells” value [1] was “No morphological change”, the tube formation ([2]; 200 nM, cultured with VEGF in the basal EBM2 medium) was “inhibited” and the tube formation ([2]; 2 μM) was “inhibited”. For the same molecule, the HUVE cell migration ([3]; 200 nM test compound) was “exhibited inhibitory activity”, the HUVE cell migration ([3]; 1 μM (1000 nM) test compound) was “inhibit” and the “retinal angiogenesis, morphological analysis” value ([5]; 5-10 nmol in a single injection) was “appeared to inhibit retinal angiogenesis based on morphological analysis, but the sampling numbers were low and significant effects were not observed”. For the same molecule, the “growth of HUVE cells (BrdU incorporation)” value [4] was “inhibit the growth”, the BrdU incorporation [4] was “inhibit” and the “doses that inhibited BrdU incorporation” value [4] was > 200 nM.

With CN(C)[C@H]1CC[C@H]2[C@@H](CC[C@@H]3[C@@H]2CC[C@]2(C)[C@@H](c4ccc5ccncc5c4)CC[C@@H]32)C1 [EJC-07] the HUVE cell migration ([3]; 200 nM test compound) was “active”.

CN1CCc2ccc([C@H]3CC[C@H]4[C@@H]5CC[C@H]6C[C@@H](N(C)C)CC[C@@H]6[C@H]5CC[C@]34C)cc2C1 [EJC-8] was tested, and the HUVE cell migration ([3]; 50 nM test compound) was “inhibit”.

With CN1CCc2ccc(C3=CC[C@H]4[C@@H]5CC[C@H]6C[C@@H](N(C)C)CC[C@@H]6[C@H]5CC[C@]34C)cc2C1 [EJC-9] the tube formation [2, 6] was “significant inhibition”, the “tube formation, quantitative analysis of mean tube length” value ([2]; 50 nM) was “inhibit” and the HUVE cell migration ([3]; 50 nM test compound) was “not active”. For the same molecule, the HUVE cell migration ([3]; 200 nM test compound) was “not active”.

For CN(C)[C@H]1CC[C@H]2[C@@H](CC[C@@H]3[C@@H]2CC[C@]2(C)C(c4ccc5cnccc5c4)=CC[C@@H]32)C1 [EJC-10], the tube formation [2, 6] was “significant inhibition”, the “tube formation, quantitative analysis of mean tube length” value ([2]; 50 nM) was “inhibit” and the HUVE cell migration ([3]; 50 nM test compound) was “inhibit”. The IC50 ([3]; Homo sapiens, VEGF-stimulated, transwell, read-out: cell migration inhibition IC50) was 70.7 nM, the retinal vessel formation ([5]; p6 mice) was “did not inhibit retinal vessel formation completely” and the retinal vessel formation ([5]; p14 mice) was “did not inhibit retinal vessel formation completely”. For the same molecule, the “vessel density in the retina compared to control” value ([5]; single dose of 500 pmol, p6 mice (FIG. 13)) was “decreases”, the retinal angiogenesis ([5]; single injection of 500 pmol, p6 mice) was “inhibited” and the IC50 ([4]; Homo sapiens, in the presence of PDGF, read-out: IC50, cell growth induced by PDGF) was 79.5 nM. It also gave an IC50 ([4]; Homo sapiens, in the presence of VEGF, read-out: IC50, cell growth induced by VEGF) of 16.7 nM, an IC50 ([4]; Homo sapiens, in the presence of bFGF, read-out: IC50, cell growth induced by bFGF) of 64.1 nM and an IC50 ([4]; Homo sapiens, media absent an exogenous growth factor, read-out: IC50, growth of HUVE cells) of 57.6 nM. For the same molecule, the “HUVE cell growth induced by PDGF” value [4] was “inhibited”, the “HUVE cell growth induced by VEGF” value [4] was “inhibited” and the “HUVE cell growth induced by bFGF” value [4] was “inhibited”. The IC50 ([4]; in the presence of PDGF, read-out: IC50, cell growth induced by PDGF) was 79.5 nM and the IC50 ([4]; in the presence of bFGF, read-out: IC50, cell growth induced by bFGF) was 64.1 nM.

With CN(C)[C@H]1CC[C@H]2[C@@H](CC[C@@H]3[C@@H]2CC[C@]2(C)C(c4ccc5ncccc5c4)=CC[C@@H]32)C1 [EJC-11] the HUVE cell migration ([3]; 50 nM test compound) was “moderately active”.

CN(C)[C@H]1CC[C@H]2[C@@H](CC[C@@H]3[C@@H]2CC[C@]2(C)C(c4cccc5cnccc45)=CC[C@@H]32)C1 [EJC-12] was tested, and the HUVE cell migration ([3]; 50 nM test compound) was “inhibit”.

In the case of CN(C)[C@H]1CC[C@H]2[C@@H](CC[C@@H]3[C@@H]2CC[C@]2(C)C(c4cccc5ncccc45)=CC[C@@H]32)C1 [EJC-13], the HUVE cell migration ([3]; 50 nM test compound) is reported as “moderately active”.

CN(C)[C@H]1CC[C@H]2[C@@H](CC[C@@H]3[C@@H]2CC[C@]2(C)C(c4cccnc4)=CC[C@@H]32)C1 [EJC-14] was tested, and the HUVE cell migration ([3]; 50 nM test compound) was “inhibit”, the retinal vessel formation ([5]; p6 mice) was “did not inhibit” and the retinal vessel formation ([5]; p14 mice) was “did not inhibit”. The “cell growth induced by VEGF” value ([4]; 50 nM) was “inhibited”, the “HUVE cell growth induced by PDGF” value [4] was “only at higher concentrations and not” and the “HUVE cell growth induced by VEGF” value [4] was “inhibited”. The “HUVE cell growth induced by bFGF” value [4] was “only at higher concentrations and not”.

For CN(C)[C@H]1CC[C@H]2[C@@H](CC[C@@H]3[C@@H]2CC[C@]2(C)C(c4ccncc4)=CC[C@@H]32)C1 [EJC-15], the HUVE cell migration ([3]; 50 nM test compound) was “inactive”.

In the case of C[C@]12CC[C@H]3[C@@H](CC[C@H]4C[C@@H](N5CCCC5)CC[C@@H]43)[C@@H]1CC=C2c1ccc2ccncc2c1 [EJC-21], the HUVE cell migration ([3]; 50 nM test compound) is reported as “did not inhibit”.

In the case of C[C@]12CC[C@H]3[C@@H](CC[C@H]4C[C@@H](N5CCCC5)CC[C@@H]43)[C@@H]1CC=C2c1ccc2cnccc2c1 [EJC-22], the HUVE cell migration ([3]; 50 nM test compound) is reported as “did not inhibit”.

In the case of C[C@]12CC[C@H]3[C@@H](CC[C@H]4C[C@@H](N5CCOCC5)CC[C@@H]43)[C@@H]1CC=C2c1ccc2ccncc2c1 [EJC-23], the HUVE cell migration ([3]; 50 nM test compound) is reported as “did not inhibit”.

For C[C@]12CC[C@H]3[C@@H](CC[C@H]4C[C@@H](N5CCOCC5)CC[C@@H]43)[C@@H]1CC=C2c1ccc2cnccc2c1 [EJC-24], the HUVE cell migration ([3]; 50 nM test compound) was “did not inhibit”.

From US20120190659A1, “ANGIOGENESIS INHIBITORS” (Children's Medical Center Corporation, priority 2009, published 2012)
